Laboratory results from BindingDB's records for patent US20250346564 (ARase Therapeutics, 2025).

Target: Poly(ADP-ribose) glycohydrolase (Homo sapiens, UniProt Q86W56)
Assay: Inhibition of PARG TEMU Assay
Description: The ability of the compounds of the Examples to inhibit PARG activity in 4. (trifluoromethyl)umbelliferone (TFMU) assay was determined as described below. PARG inhibitors were added into 384 well plate for a 10-point dose response curve at 1:3 dilutions. TFMU PARG substrate and PARG (250 pM or 2 nM) were then added to the plate to initiate enzymatic reaction. After incubation with the reagent, […] was read. IC50 values were calculated using set control points for 100% inhibition as no enzyme and 0% inhibition 250 pM or 2 nM of PARG enzyme.

Chain of Poly(ADP-ribose) glycohydrolase (Q86W56 whole entry): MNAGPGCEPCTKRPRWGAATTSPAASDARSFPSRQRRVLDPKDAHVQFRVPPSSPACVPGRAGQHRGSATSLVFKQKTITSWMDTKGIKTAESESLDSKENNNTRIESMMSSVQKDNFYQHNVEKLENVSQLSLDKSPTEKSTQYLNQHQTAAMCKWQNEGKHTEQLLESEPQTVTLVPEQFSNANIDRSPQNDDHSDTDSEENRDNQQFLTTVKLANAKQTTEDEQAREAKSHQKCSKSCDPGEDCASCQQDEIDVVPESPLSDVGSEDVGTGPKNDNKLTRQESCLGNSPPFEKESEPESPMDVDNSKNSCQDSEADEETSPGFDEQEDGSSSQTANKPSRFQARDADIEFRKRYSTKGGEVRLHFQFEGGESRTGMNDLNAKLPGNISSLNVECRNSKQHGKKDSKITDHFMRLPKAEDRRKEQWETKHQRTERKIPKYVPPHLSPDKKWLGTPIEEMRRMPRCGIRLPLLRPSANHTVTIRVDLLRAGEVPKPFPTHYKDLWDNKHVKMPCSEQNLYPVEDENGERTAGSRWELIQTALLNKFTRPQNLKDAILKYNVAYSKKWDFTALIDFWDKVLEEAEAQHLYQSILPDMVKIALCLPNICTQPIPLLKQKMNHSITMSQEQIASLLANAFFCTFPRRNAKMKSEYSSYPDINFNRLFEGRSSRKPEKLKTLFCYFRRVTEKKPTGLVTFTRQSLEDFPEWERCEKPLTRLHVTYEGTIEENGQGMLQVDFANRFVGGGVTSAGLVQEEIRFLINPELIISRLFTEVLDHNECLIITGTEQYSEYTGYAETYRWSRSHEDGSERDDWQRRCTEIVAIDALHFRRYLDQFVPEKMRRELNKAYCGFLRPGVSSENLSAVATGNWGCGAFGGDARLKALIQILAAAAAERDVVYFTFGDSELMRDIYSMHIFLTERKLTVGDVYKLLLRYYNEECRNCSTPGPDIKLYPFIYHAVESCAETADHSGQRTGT

Question: With CC[C@@H]1C[C@]1(C)NS(=O)(=O)c1ccc2c(c1)c(=O)n(CC)c(=O)n2CC [US20250346564, Example 13A] as the compound, how does the IC50 read?
Answer: The IC50 was greater than 5000 nM.

Question: How did the IC50 turn out when CC1(NS(=O)(=O)c2cc(N3CCN(C(=O)N4CCCC4)CC3)c3cnn(-c4nnc(C(F)F)s4)c3c2)COC1 [US20250346564, Example 35] was run?
Answer: Its IC50 is less than 50 nM.

Question: How did the IC50 turn out when O=C(N1CCCC1)N1CCN(c2cc(S(=O)(=O)NC3(CF)COC3)cc3c2cnn3-c2nnc(C(F)F)s2)CC1 [US20250346564, Example 36] was run?
Answer: The IC50 was less than 50 nM.
